Results published in ChEMBL document CHEMBL4483862, “Open-source discovery of chemical leads for next-generation chemoprotective antimalarials” (2018).

Tested on: Plasmodium berghei
Experiment: Luciferase/luciferin-expressing antifolate-resistant parasites were used to infect a culture of HepG2 cells that were pre-incubated with compounds. Infected hepatocytes emit light due to the luciferase reaction. Assay results are presented as the percent inhibition of light emission compared to control. […]
Type: functional
Settings: sporozoite; for IC90: read-out: LUCIFERASE INFECTION ASSAY - IC90

| SMILES | IC90 [µM] | further results |
| --- | --- | --- |
| Cc1ccc(S(=O)(=O)Nc2ccc(Nc3nccn4c(-c5cccc(OC(F)(F)F)c5)cnc34)cc2)cc1 | > 6.12 | IC50 (PBLUC_HILL_SLOPE 2.83, PBLUC_R_SQUARED 0.42, read-out: LUCIFERASE INFECTION ASSAY - IC50): 3 µM |
| OC1CCC(Nc2ccn3nc(-c4cccc(OCc5ccccc5)c4)cc3n2)CC1 (stereo not given) | 7.29 | IC50 (PBLUC_HILL_SLOPE 2.85, PBLUC_R_SQUARED 0.208, read-out: LUCIFERASE INFECTION ASSAY - IC50): 3.37 µM |
| CN1CCN(C(=O)c2cccc(-c3cnc4cnc(-c5cccc(Cl)c5)cn34)c2)CC1 | > 7.64 | IC50 (PBLUC_HILL_SLOPE 2.84, PBLUC_R_SQUARED 0.435, read-out: LUCIFERASE INFECTION ASSAY - IC50): 4.45 µM |
| COC(=O)c1sccc1NC(=O)N(C)Cc1ccc(C)cc1C | > 10 | IC50 (PBLUC_HILL_SLOPE 2.81, PBLUC_R_SQUARED 0.305, read-out: LUCIFERASE INFECTION ASSAY - IC50): 6.58 µM |
| CCCc1c(C)[nH]c2[nH]n(-c3nc(C)cc(C)n3)c(=O)c2c1=O | > 10.5 | IC50 (PBLUC_HILL_SLOPE 2.87, PBLUC_R_SQUARED 0.443, read-out: LUCIFERASE INFECTION ASSAY - IC50): > 10.5 µM |
| COc1cc(F)c(S(=O)(=O)N2CCCc3cc(F)cc(F)c32)cc1OC | > 10 | IC50 (PBLUC_HILL_SLOPE 2.81, PBLUC_R_SQUARED 0.427, read-out: LUCIFERASE INFECTION ASSAY - IC50): 6.52 µM |
| O=c1[nH]c2ccccc2c(O)c1F | 2.92 | IC50 (PBLUC_HILL_SLOPE 2.84, PBLUC_R_SQUARED 0.833, read-out: LUCIFERASE INFECTION ASSAY - IC50): 1.35 µM |
| CC(C)Cc1ccc(C(NC(=O)CCc2ccc(S(N)(=O)=O)cc2)c2cccs2)cc1 (stereo not given) | > 10 | IC50 (PBLUC_HILL_SLOPE 2.82, PBLUC_R_SQUARED 0.609, read-out: LUCIFERASE INFECTION ASSAY - IC50): 7.34 µM |
| COc1ccc(CN(Cc2n/c(=N\c3ccccc3C)nc(N)[nH]2)Cc2n/c(=N\c3ccccc3C)nc(N)[nH]2)cc1OC | 4.51 | IC50 (PBLUC_HILL_SLOPE 2.79, 12.2, PBLUC_R_SQUARED 0.127, 0.675, read-out: LUCIFERASE INFECTION ASSAY - IC50): 2.77 µM |
| Cc1nc2nc(C(F)(F)F)nn2c(C)c1CCC(=O)N1CCCC1c1ccc2c(c1)OCCCO2 (stereo not given) | 8.93 | IC50 (PBLUC_HILL_SLOPE 2.87, PBLUC_R_SQUARED 0.605, read-out: LUCIFERASE INFECTION ASSAY - IC50): 4.15 µM |
| Cc1nn(-c2ccccc2Cl)c2sc(C(=O)NC3CCN(C(C)C)CC3)cc12 | > 10 | IC50 (PBLUC_HILL_SLOPE 2.83, PBLUC_R_SQUARED 0.189, read-out: LUCIFERASE INFECTION ASSAY - IC50): 5.04 µM |
| C=CC/N=c1\scc(-c2ccc(OC(F)F)cc2)n1/N=C/c1ccc(O)cc1O | > 10 | IC50 (PBLUC_HILL_SLOPE 2.81, PBLUC_R_SQUARED 0.0539, read-out: LUCIFERASE INFECTION ASSAY - IC50): > 10 µM |
| O=S(=O)(/C=C/c1ccccc1)N1CCCC(c2nc3ccccc3s2)C1 (stereo not given) | > 10 | IC50 (PBLUC_HILL_SLOPE 2.87, PBLUC_R_SQUARED 0.652, read-out: LUCIFERASE INFECTION ASSAY - IC50): > 10 µM |
| Cc1cc(Cl)ccc1OCCCc1nc2ccc(Cl)cc2[nH]1 | > 10 | IC50 (PBLUC_HILL_SLOPE 2.8, PBLUC_R_SQUARED 0.541, read-out: LUCIFERASE INFECTION ASSAY - IC50): 7.39 µM |
| CC(=O)Nc1ccc(Sc2cc(C)nc(C(C)C)n2)cc1 | 9.81 | IC50 (PBLUC_HILL_SLOPE 2.86, PBLUC_R_SQUARED 0.342, read-out: LUCIFERASE INFECTION ASSAY - IC50): 4.56 µM |
| O=C(NC1CC1)c1ccc(CN(C2CC2)S(=O)(=O)c2ccc3c(c2)OCCCO3)cc1 | 5.38 | IC50 (PBLUC_HILL_SLOPE 2.85, PBLUC_R_SQUARED 0.458, read-out: LUCIFERASE INFECTION ASSAY - IC50): 2.49 µM |
| COC(=O)CCSc1c2ccc(Cl)cc2nc2ccc(OC)cc12 | 0.454 | IC50 (PBLUC_HILL_SLOPE 2.8, PBLUC_R_SQUARED 0.704, read-out: LUCIFERASE INFECTION ASSAY - IC50): 0.207 µM |
| CCCCCc1ccc(C(=O)Nc2nc3ccc(C)cn3c2C(=O)NCCCC)cc1 | > 7.85 | IC50 (PBLUC_HILL_SLOPE 2.82, PBLUC_R_SQUARED 0.514, read-out: LUCIFERASE INFECTION ASSAY - IC50): 4.14 µM |
| CCC(CO)Nc1ccc2ncc(-c3ccc(OC)nc3)n2n1 (stereo not given) | 5.43 | IC50 (PBLUC_HILL_SLOPE 2.84, PBLUC_R_SQUARED 0.538, read-out: LUCIFERASE INFECTION ASSAY - IC50): 2.51 µM |
| CCc1cc2c(Nc3ccc4c(c3)OCO4)nc(C)nc2s1 | > 10 | IC50 (PBLUC_HILL_SLOPE 2.79, PBLUC_R_SQUARED 0.532, read-out: LUCIFERASE INFECTION ASSAY - IC50): 6.73 µM |

| SMILES | IC90 [µM] | further results |
| --- | --- | --- |
| Cc1ccc(C(=O)Nc2nc(CC34CC5CC(CC(C5)C3)C4)cs2)s1 | > 10 | IC50 (PBLUC_HILL_SLOPE 2.85, PBLUC_R_SQUARED 0.204, read-out: LUCIFERASE INFECTION ASSAY - IC50): 6.66 µM |
| c1ccc(-c2cn3nc(NCc4cccs4)sc3n2)cc1 | > 10 | IC50 (PBLUC_HILL_SLOPE 2.88, PBLUC_R_SQUARED 0.313, read-out: LUCIFERASE INFECTION ASSAY - IC50): 4.87 µM |
| Cc1cc(C(=O)Cn2c(C(C)O)nc3ccccc32)c(C)n1-c1ccc(F)c(Cl)c1 (stereo not given) | > 10 | IC50 (PBLUC_HILL_SLOPE 2.79, PBLUC_R_SQUARED 0.449, read-out: LUCIFERASE INFECTION ASSAY - IC50): 7.26 µM |
| COc1ccc(Nc2nccc3c2cc(-c2cccc(OC)c2)n3C)cc1 | 8.15 | IC50 (PBLUC_HILL_SLOPE 2.81, PBLUC_R_SQUARED 0.348, read-out: LUCIFERASE INFECTION ASSAY - IC50): 3.73 µM |
| COc1cccc(Nc2nccc3nc(-c4cccc(OC(F)(F)F)c4)[nH]c23)c1 | > 10 | IC50 (PBLUC_HILL_SLOPE 2.87, PBLUC_R_SQUARED 0.483, read-out: LUCIFERASE INFECTION ASSAY - IC50): 5.1 µM |
| CCn1c2ccccc2c2cc(NC(C)C(=O)N3CCNC3=O)ccc21 (stereo not given) | 4.48 | IC50 (PBLUC_HILL_SLOPE 2.83, PBLUC_R_SQUARED 0.574, read-out: LUCIFERASE INFECTION ASSAY - IC50): 2.06 µM |
| CCCc1cc(NCc2cccnc2)n2ncc(-c3ccccc3)c2n1 | > 9.61 | IC50 (PBLUC_HILL_SLOPE 2.86, PBLUC_R_SQUARED 0.143, read-out: LUCIFERASE INFECTION ASSAY - IC50): 6.97 µM |
| O=C(NNC(=O)c1cc2c(s1)CCC2)c1csc(COc2ccc(F)cc2)n1 | 8.59 | IC50 (PBLUC_HILL_SLOPE 2.84, PBLUC_R_SQUARED 0.402, read-out: LUCIFERASE INFECTION ASSAY - IC50): 3.96 µM |
| CC(C)(C)C(=O)/C=c1\[nH]c(=O)/c(=C/c2cc(F)cc3c2OCOC3)s1 | > 10 | IC50 (PBLUC_HILL_SLOPE 2.84, PBLUC_R_SQUARED 0.665, read-out: LUCIFERASE INFECTION ASSAY - IC50): 6.37 µM |
| CN(C)C(=O)N1CCCC(C(=O)Nc2nc(-c3c(F)cccc3F)cs2)C1 (stereo not given) | > 10 | IC50 (PBLUC_HILL_SLOPE 2.82, PBLUC_R_SQUARED 0.52, read-out: LUCIFERASE INFECTION ASSAY - IC50): 5.62 µM |
| Cc1cc(C)cc(C(=O)NCC(=O)N(C)Cc2cn(-c3ccccc3)nc2-c2ccccc2)c1 | > 10 | IC50 (PBLUC_HILL_SLOPE 2.80, 14.9, PBLUC_R_SQUARED 0.685, 0.405, read-out: LUCIFERASE INFECTION ASSAY - IC50): 7.57 µM |
| CC(=O)c1cccc(-c2cnc3cnc(-c4ccccc4)cn23)c1 | > 10.5 | IC50 (PBLUC_HILL_SLOPE 2.79, PBLUC_R_SQUARED 0.249, read-out: LUCIFERASE INFECTION ASSAY - IC50): 9.07 µM |
| Cn1ccnc1SCC(=O)N1N=C2/C(=C/c3ccccc3)CCCC2C1c1ccccc1 (stereo not given) | > 10 | IC50 (PBLUC_HILL_SLOPE 2.84, PBLUC_R_SQUARED 0.326, read-out: LUCIFERASE INFECTION ASSAY - IC50): 8.34 µM |
| C#CCSc1nnc(-c2ccc(C(C)(C)C)cc2)n1C | 5.91 | IC50 (PBLUC_HILL_SLOPE 2.86, PBLUC_R_SQUARED 0.337, read-out: LUCIFERASE INFECTION ASSAY - IC50): 2.74 µM |
| O=C(Oc1ccc(Cl)cc1Cc1ccccc1)c1ccccc1-c1ccc(C(F)(F)F)cc1 | > 10 | IC50 (PBLUC_HILL_SLOPE 2.87, PBLUC_R_SQUARED 0.0345, read-out: LUCIFERASE INFECTION ASSAY - IC50): 8.61 µM |
| COc1cc(CCC2CCN(c3ccc4nnc(C(F)(F)F)n4n3)CC2)cc(OC)c1 | > 10 | IC50 (PBLUC_HILL_SLOPE 2.86, PBLUC_R_SQUARED 0.563, read-out: LUCIFERASE INFECTION ASSAY - IC50): 5.92 µM |
| Cc1ccc(S(=O)(=O)Nc2ccc(C(=O)Nc3ccccc3O)cc2)cc1C | 2.52 | IC50 (PBLUC_HILL_SLOPE 2.83, PBLUC_R_SQUARED 0.529, read-out: LUCIFERASE INFECTION ASSAY - IC50): 1.16 µM |
| FC(F)(F)Oc1cccc(-c2ccc3ncc(-c4cccs4)n3n2)c1 | > 10 | IC50 (PBLUC_HILL_SLOPE 2.85, PBLUC_R_SQUARED 0.222, read-out: LUCIFERASE INFECTION ASSAY - IC50): 9.07 µM |
| Fc1ccc(-c2nc3ccnc(Nc4ccccc4)c3[nH]2)cc1F | > 10 | IC50 (PBLUC_HILL_SLOPE 2.79, PBLUC_R_SQUARED 0.219, read-out: LUCIFERASE INFECTION ASSAY - IC50): 5.41 µM |
| N=c1c2ccccc2nnn1-c1ccc(C(F)(F)F)cc1 | 7.24 | IC50 (PBLUC_HILL_SLOPE 2.81, PBLUC_R_SQUARED 0.81, read-out: LUCIFERASE INFECTION ASSAY - IC50): 3.32 µM |
